Measurements as given in the NIST ThermoML archive (doi:10.1007/s10765-010-0737-5).
± gives the expanded uncertainty stated by the source.

Experiment: xn = mol fraction of the nth substance listed
Conditions: Liquid; for viscosity: 101 kPa, Capillary tube (Ostwald / Ubbelohde) method; for mass density: 101.3 kPa

CC(C)CCl [1-chloro-2-methylpropane] + CC(C)OC(C)C
Conditions | mass density [kg/m3] | viscosity [mPa·s]
283.15 K, x1 = 0.0549 | 740.509 ± 0.9 | 0.3695 ± 0.004
283.15 K, x1 = 0.091 | 745.071 ± 0.89 | 0.3728 ± 0.0041
283.15 K, x1 = 0.1977 | 758.96 ± 0.87 | 0.3837 ± 0.0042
283.15 K, x1 = 0.2934 | 772.077 ± 0.84 | 0.3947 ± 0.0042
283.15 K, x1 = 0.3911 | 785.941 ± 0.81 | 0.4069 ± 0.0043
283.15 K, x1 = 0.5137 | 804.21 ± 0.78 | 0.424 ± 0.0045
283.15 K, x1 = 0.6034 | 818.258 ± 0.75 | 0.438 ± 0.0046
283.15 K, x1 = 0.6769 | 830.206 ± 0.72 | 0.4502 ± 0.0047
283.15 K, x1 = 0.8059 | 852.473 ± 0.68 | 0.4739 ± 0.0049
283.15 K, x1 = 0.9111 | 871.773 ± 0.64 | 0.4955 ± 0.0051
283.15 K, x1 = 0.9646 | 881.981 ± 0.62 | 0.5074 ± 0.0052
283.15 K, x1 = 1 | 888.845 ± 0.6 | 0.5155 ± 0.0053
288.15 K, x1 = 0.0549 | 735.346 ± 0.91 | 0.3532 ± 0.0039
288.15 K, x1 = 0.091 | 739.888 ± 0.91 | 0.3565 ± 0.0039
288.15 K, x1 = 0.1977 | 753.737 ± 0.88 | 0.3666 ± 0.004
288.15 K, x1 = 0.2934 | 766.807 ± 0.85 | 0.3765 ± 0.0041
288.15 K, x1 = 0.3911 | 780.617 ± 0.82 | 0.3876 ± 0.0042
288.15 K, x1 = 0.5137 | 798.831 ± 0.79 | 0.403 ± 0.0043
288.15 K, x1 = 0.6034 | 812.821 ± 0.76 | 0.4152 ± 0.0044
288.15 K, x1 = 0.6769 | 824.734 ± 0.73 | 0.4261 ± 0.0045
288.15 K, x1 = 0.8059 | 846.936 ± 0.69 | 0.447 ± 0.0047
288.15 K, x1 = 0.9111 | 866.179 ± 0.65 | 0.4658 ± 0.0048
288.15 K, x1 = 0.9646 | 876.368 ± 0.63 | 0.4761 ± 0.0049
288.15 K, x1 = 1 | 883.211 ± 0.61 | 0.4833 ± 0.005
293.15 K, x1 = 0.0549 | 730.142 ± 0.93 | 0.3383 ± 0.0038
293.15 K, x1 = 0.091 | 734.678 ± 0.92 | 0.3412 ± 0.0038
293.15 K, x1 = 0.1977 | 748.467 ± 0.89 | 0.3504 ± 0.0039
293.15 K, x1 = 0.2934 | 761.481 ± 0.86 | 0.3595 ± 0.0039
293.15 K, x1 = 0.3911 | 775.245 ± 0.83 | 0.3694 ± 0.004
293.15 K, x1 = 0.5137 | 793.406 ± 0.8 | 0.3831 ± 0.0041
293.15 K, x1 = 0.6034 | 807.35 ± 0.77 | 0.3941 ± 0.0042
293.15 K, x1 = 0.6769 | 819.228 ± 0.74 | 0.4038 ± 0.0043
293.15 K, x1 = 0.8059 | 841.356 ± 0.7 | 0.4222 ± 0.0045
293.15 K, x1 = 0.9111 | 860.549 ± 0.66 | 0.4386 ± 0.0046
293.15 K, x1 = 0.9646 | 870.717 ± 0.64 | 0.4478 ± 0.0047
293.15 K, x1 = 1 | 877.539 ± 0.63 | 0.454 ± 0.0047
298.15 K, x1 = 0.0549 | 724.887 ± 0.94 | 0.3219 ± 0.0036
298.15 K, x1 = 0.091 | 729.395 ± 0.93 | 0.3247 ± 0.0037
298.15 K, x1 = 0.1977 | 743.114 ± 0.9 | 0.3337 ± 0.0037
298.15 K, x1 = 0.2934 | 756.06 ± 0.87 | 0.3423 ± 0.0038
298.15 K, x1 = 0.3911 | 769.763 ± 0.84 | 0.3515 ± 0.0039
298.15 K, x1 = 0.5137 | 787.825 ± 0.81 | 0.3644 ± 0.004
298.15 K, x1 = 0.6034 | 801.699 ± 0.78 | 0.3747 ± 0.0041
298.15 K, x1 = 0.6769 | 813.519 ± 0.76 | 0.3834 ± 0.0041
298.15 K, x1 = 0.8059 | 835.53 ± 0.71 | 0.4003 ± 0.0043
298.15 K, x1 = 0.9111 | 854.603 ± 0.67 | 0.4156 ± 0.0044
298.15 K, x1 = 0.9646 | 864.749 ± 0.65 | 0.4238 ± 0.0045
298.15 K, x1 = 1 | 871.533 ± 0.64 | 0.4296 ± 0.0045
303.15 K, x1 = 0.0549 | 719.603 ± 0.95 | 0.3043 ± 0.0035
303.15 K, x1 = 0.091 | 724.11 ± 0.94 | 0.3069 ± 0.0035
303.15 K, x1 = 0.1977 | 737.798 ± 0.91 | 0.316 ± 0.0036
303.15 K, x1 = 0.2934 | 750.738 ± 0.88 | 0.3246 ± 0.0036
303.15 K, x1 = 0.3911 | 764.421 ± 0.86 | 0.3341 ± 0.0037
303.15 K, x1 = 0.5137 | 782.446 ± 0.82 | 0.3469 ± 0.0038
303.15 K, x1 = 0.6034 | 796.305 ± 0.79 | 0.357 ± 0.0039
303.15 K, x1 = 0.6769 | 808.11 ± 0.77 | 0.3659 ± 0.004
303.15 K, x1 = 0.8059 | 830.111 ± 0.72 | 0.3826 ± 0.0041
303.15 K, x1 = 0.9111 | 849.196 ± 0.68 | 0.3975 ± 0.0043
303.15 K, x1 = 0.9646 | 859.307 ± 0.66 | 0.4058 ± 0.0043
303.15 K, x1 = 1 | 866.096 ± 0.65 | 0.4112 ± 0.0044
308.15 K, x1 = 0.0549 | 714.28 ± 0.96 | 0.2896 ± 0.0034
308.15 K, x1 = 0.091 | 718.759 ± 0.95 | 0.2926 ± 0.0034
308.15 K, x1 = 0.1977 | 732.397 ± 0.92 | 0.3012 ± 0.0035
308.15 K, x1 = 0.2934 | 745.3 ± 0.89 | 0.3094 ± 0.0035
308.15 K, x1 = 0.3911 | 758.935 ± 0.87 | 0.3184 ± 0.0036
308.15 K, x1 = 0.5137 | 776.901 ± 0.83 | 0.3308 ± 0.0037
308.15 K, x1 = 0.6034 | 790.719 ± 0.8 | 0.3404 ± 0.0038
308.15 K, x1 = 0.6769 | 802.492 ± 0.78 | 0.3489 ± 0.0039
308.15 K, x1 = 0.8059 | 824.422 ± 0.73 | 0.3647 ± 0.004
308.15 K, x1 = 0.9111 | 843.468 ± 0.69 | 0.3791 ± 0.0041
308.15 K, x1 = 0.9646 | 853.542 ± 0.67 | 0.3867 ± 0.0042
308.15 K, x1 = 1 | 860.319 ± 0.66 | 0.3921 ± 0.0042
313.15 K, x1 = 0.0549 | 708.887 ± 0.97 | 0.2761 ± 0.0032
313.15 K, x1 = 0.091 | 713.334 ± 0.96 | 0.2788 ± 0.0033
313.15 K, x1 = 0.1977 | 726.882 ± 0.93 | 0.287 ± 0.0033
313.15 K, x1 = 0.2934 | 739.693 ± 0.91 | 0.2948 ± 0.0034
313.15 K, x1 = 0.3911 | 753.227 ± 0.88 | 0.3033 ± 0.0035
313.15 K, x1 = 0.5137 | 771.077 ± 0.84 | 0.315 ± 0.0036
313.15 K, x1 = 0.6034 | 784.802 ± 0.81 | 0.324 ± 0.0036
313.15 K, x1 = 0.6769 | 796.487 ± 0.79 | 0.3322 ± 0.0037
313.15 K, x1 = 0.8059 | 818.264 ± 0.75 | 0.3472 ± 0.0038
313.15 K, x1 = 0.9111 | 837.168 ± 0.71 | 0.3607 ± 0.004
313.15 K, x1 = 0.9646 | 847.176 ± 0.69 | 0.3677 ± 0.004
313.15 K, x1 = 1 | 853.902 ± 0.67 | 0.3726 ± 0.0041
